Laboratory results taken from article PMC10771296, “Plectasin: from evolution to truncation, expression, and better druggability” (Frontiers in Microbiology, 2023).
Values after ≈ are worked out from the molar mass of the structure shown. Where a SMILES comes first, the peptide text is derived from it. Bridges are numbered along the chain shown (N, C = ends).

How the values were obtained:
S. agalactiae ATCC13813 = assay: MIC/MBC, micro broth dilution; type: cell-based
Method: (§1) The minimum inhibitory concentration (MIC) of the peptides was assayed using the micro broth dilution method, which is an important indicator of the antibacterial activity of the AMPs ([Liu et al., 2021]). […] The MIC was defined as the lowest concentration of ones at which no visible bacterial growth was observed. All the assays were repeated thrice.

[1] = system: S. agalactiae CAU-FRI-2022-01; assay: MIC/MBC, micro broth dilution; type: cell-based
Method: as §1

[2] = system: S. agalactiae CAU-FRI-2022-02; assay: MIC/MBC, micro broth dilution; type: cell-based
Method: as §1

S. dysgalactiae CVCC3938 = assay: MIC/MBC, micro broth dilution; type: cell-based
Method: as §1

S. epidermidis ATCC12228 = assay: MIC/MBC, micro broth dilution; type: cell-based
Method: as §1

S. epidermidis ATCC35984 = assay: MIC/MBC, micro broth dilution; type: cell-based
Method: as §1

E. coli ATCC25922 = assay: MIC, micro broth dilution; type: cell-based; details: 1 × 10^5 CFU/mL, repeated thrice
Method: as §1

E. coli O157 = assay: MIC, micro broth dilution; type: cell-based; details: 1 × 10^5 CFU/mL, repeated thrice
Method: as §1

P. aeruginsoa CICC21630 = assay: MIC, micro broth dilution; type: cell-based; details: 1 × 10^5 CFU/mL, repeated thrice
Method: as §1

S. enteriditis CVCC3377 = assay: MIC, micro broth dilution; type: cell-based; details: 1 × 10^5 CFU/mL, repeated thrice
Method: as §1

Shigella CMCC3926 = assay: MIC, micro broth dilution; type: cell-based; details: 1 × 10^5 CFU/mL, repeated thrice
Method: as §1

Streptococcus = assay: MIC, summary over the panel; type: cell-based; details: including S. agalactiae ATCC13813, S. dysgalactiae CVCC3938, S. agalactiae CAU-FRI-2022-02
Method: as §1

gram-negative bacteria = assay: MIC, summary over the panel; type: cell-based; details: summary of the panel
Method: as §1

S. aureus ATCC43300 [3] = assay: Time-kill curve (bacterial kinetics in vitro); type: cell-based, Staphylococcus aureus; details: 1 × 10^5 CFU/mL, 37°C, 250 rpm, colony counting
Method: The bactericidal efficiency of Ple-AB was evaluated by plotting a time-kill curve ([Zheng et al., 2021]). Single colonies of the S. aureus ATCC43300 were picked for overnight activation, and 1% were transferred and incubated at 37°C until the logarithmic growth phase. […] Samples of 100 uL of bacteria were taken at 0, 0.5, 1, 2, 4, 6, 8, 10, 12, and 24 h, diluted, and coated to count the number of single colonies and plot the time-killing curve.

ICR mice [4] = assay: In vivo safety: body weight and HE histology; details: 10 mg/kg i.p. for six consecutive days
Method: (§2) Eight 6-week-old ICR mice were randomly divided into two groups and injected intraperitoneally with Ple-AB (10 mg/kg, body weight) and saline for six consecutive days. […] They were weighed daily, and blood was collected on the 7th day for hematological and biochemical analyses. Simultaneously, the heart, liver, spleen, lungs, and kidneys were collected for tissue fixation and hematoxylin–eosin (HE) staining to observe any pathological changes ([Shishkina et al., 2023]).

ICR mice [5] = assay: In vivo safety: hematological indices; set-up: RDW-CV / MCHC: unit not given here; details: 10 mg/kg i.p. for six consecutive days, blood on 7th day
Method: as §2

ICR mice [6] = assay: In vivo safety: serum biochemical indices; details: 10 mg/kg i.p. for six consecutive days
Method: as §2

S. aureus ATCC43300 [7] = assay: Stability in simulated (artificial) intestinal fluid read out as MIC; type: in vitro ADME, Staphylococcus aureus
Method: (§3) The stability of Ple-AB was assessed based on its antibacterial activity against S. aureus ATCC43300. Temperature stability was determined by incubation at 20, 40, 60, 80, and 100°C for 1 h ([Li et al., 2020]). The pH stability was determined by incubation in buffers with a pH of 2, 4, 6, 8, and 10 for 4 h ([Yang et al., 2017]). The peptides were incubated with different concentrations of metal ions, serum, artificial gastric fluid, and simulated intestinal fluid to assess their stability in the blood and intestines ([Lyu et al., 2019]). All the treatments were performed in triplicates.

S. aureus ATCC43300 [8] = assay: Serum stability read out as MIC; type: in vitro ADME, Staphylococcus aureus; details: 1–8 h, triplicates
Method: as §3

[9] = micro broth dilution, 1 × 10^5 CFU/mL, repeated thrice
[10] = bovine mastitis isolate, micro broth dilution, 1 × 10^5 CFU/mL, repeated thrice

## CC[C@H](C)[C@@H]1NC(=O)[C@H](CO)NC(=O)[C@H](CCCCN)NC(=O)[C@@H]2CSSC[C@@H](C(=O)N[C@@H](Cc3ccc(O)cc3)C(=O)O)NC(=O)[C@H](CCCCN)NC(=O)[C@@H]3CSSC[C@H](NC(=O)[C@H](CCC(N)=O)NC(=O)[C@H](CCSC)NC(=O)[C@H](CCC(=O)O)NC(=O)[C@H](CC(=O)O)NC(=O)[C@H](Cc4c[nH]c5ccccc45)NC(=O)[C@@H]4CCCN4C(=O)[C@@H](NC(=O)CNC(=O)[C@H](Cc4ccccc4)NC(=O)CN)CSSC[C@H](NC(=O)[C@H](Cc4ccc(O)cc4)NC(=O)CNC(=O)CNC(=O)[C@H](CCCCN)NC(=O)[C@H](Cc4ccc(O)cc4)NC(=O)CNC(=O)[C@H](CCCCN)NC1=O)C(=O)N[C@@H](C)C(=O)N[C@@H](CCCCN)C(=O)NCC(=O)NCC(=O)N[C@@H](Cc1ccccc1)C(=O)N[C@@H](C(C)C)C(=O)N3)C(=O)N[C@@H](Cc1c[nH]cn1)C(=O)N[C@@H](CC(N)=O)C(=O)N[C@@H](Cc1c[nH]cn1)C(=O)N2 [Ple-AB] (H-GFGCPWDEMQCHNHCKSIKGYKGGYCAKGGFVCKCY-OH; disulfide 4-26, 11-33, 15-35; N-terminus and C-terminus assumed)
S. agalactiae ATCC13813; S. agalactiae ATCC13813
  MBC: 4 µg/mL (≈ 1 µM)
S. agalactiae ATCC13813; [9]
  MIC: 4 µg/mL (≈ 1 µM)
[1]; S. agalactiae CAU-FRI-2022-01
  MBC: 32 µg/mL (≈ 8 µM)
[1]; [10]
  MIC: 4 µg/mL (≈ 1 µM)
[2]; S. agalactiae CAU-FRI-2022-02
  MBC: 4 µg/mL (≈ 1 µM)
[2]; [10]
  MIC: 2 µg/mL (≈ 0.5 µM)
S. dysgalactiae CVCC3938; S. dysgalactiae CVCC3938
  MBC: 4 µg/mL (≈ 1 µM)
S. dysgalactiae CVCC3938; [9]
  MIC: 4 µg/mL (≈ 1 µM)
S. epidermidis ATCC12228; S. epidermidis ATCC12228
  MBC: 8 µg/mL (≈ 2 µM)
S. epidermidis ATCC12228; [9]
  MIC: 2 µg/mL (≈ 0.5 µM)
S. epidermidis ATCC35984; S. epidermidis ATCC35984
  MBC: 8 µg/mL (≈ 2 µM)
S. epidermidis ATCC35984; [9]
  MIC: 4 µg/mL (≈ 1 µM)
E. coli ATCC25922
  MIC: >128 µg/mL
E. coli O157
  MIC: >128 µg/mL
P. aeruginsoa CICC21630
  MIC: >128 µg/mL
S. enteriditis CVCC3377
  MIC: >128 µg/mL
Shigella CMCC3926
  MIC: >128 µg/mL
Streptococcus
  MICs, range over Streptococcus: 2 to 4 µg/mL
gram-negative bacteria
  Activity against gram-negative bacteria: inactive
S. aureus ATCC43300 [3]; 1× MIC
  Time to kill all the strains: ≤ 4 h
S. aureus ATCC43300 [3]; 2× MIC
  Time to kill all the strains: ≤ 4 h
S. aureus ATCC43300 [3]; 4× MIC
  Time to 99% bactericidal activity: ≤ 2 h
ICR mice [4]; one week after injection, vs saline
  Histological morphology of heart, liver, spleen, lungs, kidneys (HE staining): no differences in histological morphology
ICR mice [4]; weighed daily
  Body weight change: slight tendency to lose weight on the second day after the injection
ICR mice [5]
  BASO: 0.09 ± 0.027 10^9/L
  BASO %: 1.09 ± 0.34%
  EO: 0.19 ± 0.106 10^9/L
  EO %: 2.33 ± 1.24%
  HBG: 128 ± 12 g/L
  HCT %: 41.3 ± 2.4%
  LYM: 5.89 ± 0.585 10^9/L
  LYM %: 74.8 ± 3.02%
  MCH: 13.48 ± 0.67 pg
  MCHC: 32.86 ± 1.73
  MCV: 41.73 ± 1.17 fL
  MONO: 0.24 ± 0.066 10^9/L
  MONO %: 3 ± 0.49%
  MPV: 6.63 ± 0.57 fL
  NEUT: 1.49 ± 0.354 10^9/L
  NEUT %: 18.78 ± 1.66%
  PCT %: 0.02 ± 0.01%
  PDW %: 15.85 ± 0.75%
  PLCR %: 15.35 ± 3.65%
  PLT: 782.3 ± 48.25 10^9/L
  RBC: 9.44 ± 0.82 10^12/L
  RDW-CV: 18.58 ± 1.97
  RDW-SD %: 44.55 ± 3.65%
  WBC: 7.89 ± 0.94 10^9/L
  Whole blood cell profiles versus control group: not significantly different
ICR mice [6]; blood on 7th day
  Serum biochemical indices versus control group: not significantly different
ICR mice [6]; serum on 7th day
  ALT: 49.07 ± 6.21 IU/L
  AST: 25.85 ± 2.33 IU/L
  Albumin: 35.59 ± 4.58 g/L
  Ca^2+: 1.38 ± 0.06 mmol/L
  Creatinine: 83.13 ± 4.57 µmol/L
  Globulin: 18.82 ± 0.25 g/L
  Glucose: 1.59 ± 0.15 mmol/L
  Phosphorous: 3.33 ± 0.20 mmol/L
  Total protein: 54.41 ± 4.56 g/L
  Urea Nitrogen: 11.6 ± 0.8 mmol/L
S. aureus ATCC43300 [7]; Artificial Intestinal Fluid (trypsin), 1 h, read-out MIC, triplicates
  MIC after Artificial Intestinal Fluid: 32 µg/mL (≈ 8 µM)
S. aureus ATCC43300 [7]; simulated intestinal fluids (trypsin), 1 h (lasted for 2 h), from MIC
  Remaining share of initial activity after simulated intestinal fluids: approximately 50%
S. aureus ATCC43300 [8]; Serum (25%)
  MIC after serum: 16 µg/mL (≈ 4 µM)
S. aureus ATCC43300 [8]; Serum (50%)
  MIC after serum: 16 µg/mL (≈ 4 µM)
